Inhibition data for 56 compounds are collected here from ChEMBL document CHEMBL1154295, “Potent and selective steroidal inhibitors of 17beta-hydroxysteroid dehydrogenase type 7, an enzyme that catalyzes the reduction of the key hormones estrone and dihydrotestosterone” (J Med Chem, 2009).

For assay [1], the target named is T1, 3-keto-steroid reductase/17-beta-hydroxysteroid dehydrogenase 7 (Homo sapiens) (UniProt P56937).
T1 sequence (whole entry): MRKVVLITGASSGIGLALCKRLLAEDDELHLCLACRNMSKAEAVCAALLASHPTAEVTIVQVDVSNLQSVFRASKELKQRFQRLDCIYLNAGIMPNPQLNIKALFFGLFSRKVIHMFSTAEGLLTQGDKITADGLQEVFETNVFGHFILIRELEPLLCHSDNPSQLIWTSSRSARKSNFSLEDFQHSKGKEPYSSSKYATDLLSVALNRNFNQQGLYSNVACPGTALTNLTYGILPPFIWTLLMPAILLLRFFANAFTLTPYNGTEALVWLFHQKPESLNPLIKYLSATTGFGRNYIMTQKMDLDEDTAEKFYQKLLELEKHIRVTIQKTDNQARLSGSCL
The settings on record: HEK293, at 0.3 µM.
Description: Inhibition of human 17beta-HSD7 expressed in HEK293 cells assessed as inhibition of reduction of [14C]estrone into [14C]estradiol at 0.3 uM after 7 hrs

Assay [2] concerns the target T1, 3-keto-steroid reductase/17-beta-hydroxysteroid dehydrogenase 7 (Homo sapiens). The note with it: HEK293, at 3 µM.
Description: Inhibition of human 17beta-HSD7 expressed in HEK293 cells assessed as inhibition of reduction of [14C]estrone into [14C]estradiol at 3 uM after 7 hrs

As a reminder, the inhibition is the percentage by which the read-out fell short of the control. For the compound `CCCN(CC1C2CC3CC(C2)CC1C3)C[C@@]1(O)CC[C@@]2(C)[C@@H](CC[C@@H]3[C@@H]2CC[C@]2(C)C(=O)CC[C@@H]32)C1` (stereo partly drawn), the values for the inhibition in assay [1] and in assay [2] were 29% and 18.8%, respectively.
On to `CC(C)NC(=O)N(C1CC1)[C@H]1CC[C@H]2[C@@H]3CC[C@H]4N(C)C(=O)CC[C@]4(C)[C@H]3CC[C@]12C`, for which the inhibition in assay [1] is 16.5%; in assay [2] it was 37.3%.
For `C[C@]12CC[C@@H]3c4ccc(O)cc4CC[C@H]3[C@@H]1C[C@@H](CCBr)[C@@H]2O`, in that order: 5.8% and 4.5%.
Turning to `CC(C)NC(=O)N(C1CC1)[C@H]1CC[C@H]2[C@@H]3CC[C@H]4N(C)C(=O)C=C[C@]4(C)[C@H]3CC[C@]12C`, the inhibition in assay [1] stood at 3.6%; in assay [2] it was 2.5%.
On to `CC1(C)CC[C@@]2(CC[C@H]3[C@@H]4CCc5cc(C(=O)O)ccc5[C@H]4CC[C@@]32C)OC1=O`, for which the inhibition in assay [1] is 28.1%; in assay [2], 20.9%.
As to `C[C@]12CC[C@](O)(CCc3ccccc3)C[C@@H]1CC[C@@H]1[C@@H]2CC[C@]2(C)C(=O)CC[C@@H]12`, the inhibition stood at 0% in assay [1] and 17.4% in assay [2].
In the case of `CCCNC(=O)N(C1CC1)[C@H]1CC[C@H]2[C@@H]3CC[C@H]4N(C)C(=O)C=C[C@]4(C)[C@H]3CC[C@]12C`, the figures for the inhibition in assay [1] and in assay [2] were 7.8% and 8.5%, respectively.
`CC(=O)S[C@@H]1CC2=CC(=O)CC[C@]2(C)[C@H]2CC[C@@]3(C)[C@@H](CC[C@@]34CCC(=O)O4)[C@H]12`: the inhibition in assay [1] was 7.2%; in assay [2], 7.5%.
Regarding `COC(=O)c1cc2c(cc1O)CC[C@@H]1[C@@H]2CC[C@@]2(C)[C@H]1CC[C@@]21CCC(C)(C)C(=O)O1`, the inhibition in assay [1] is 21.1%; in assay [2], 30%.
For `C[C@]12CC[C@@H]3c4ccc(O)cc4CC[C@H]3[C@@H]1CC[C@@]21CCC(=O)O1`, in that order: 3.9% and 3.1%.
For `CCCCCN(C=O)[C@H]1CC[C@H]2[C@@H]3CC[C@H]4NC(=O)CC[C@]4(C)[C@H]3CC[C@]12C`, in that order: 35.2% and 89.1%.
Consider `C[C@]12CCC(=O)C(O)=C1CC[C@@H]1[C@@H]2CC[C@]2(C)C(=O)CC[C@@H]12`, for which the results for the inhibition in assay [1] and in assay [2] were 8.1% and 7.1%, respectively.
`CN1C(=O)C=C[C@]2(C)[C@H]3CC[C@]4(C)[C@@H](N(C(=O)NC5CCCCC5)C5CC5)CC[C@H]4[C@@H]3CC[C@@H]12`: the figures for the inhibition in assay [1] and in assay [2] were 8.2% and 0.8%, respectively.
As for `CN(C=O)[C@H]1CC[C@H]2[C@@H]3CC[C@H]4N(C)C(=O)CC[C@]4(C)[C@H]3CC[C@]12C`, the inhibition is 14.5% in assay [1] and 15.8% in assay [2].
As to `C[C@]12CCC(=O)C=C1CC[C@@H]1[C@@H]2[C@@H](O)C[C@]2(C=O)[C@@H](C(=O)CO)CC[C@@H]12`, the values for the inhibition in assay [1] and in assay [2] were 14.4% and 7.3%, respectively.
On to `CN1C(=O)CC[C@]2(C)[C@H]3CC[C@]4(C)[C@@H](N(C=O)C5CCCCC5)CC[C@H]4[C@@H]3CC[C@@H]12`, for which the figures for the inhibition in assay [1] and in assay [2] were 23.9% and 75.2%, respectively.
Take `CN1C(=O)CC[C@]2(C)[C@H]3CC[C@@]4(C)[C@@H](CC[C@@]4(O)C#CC(C)(C)I)[C@@H]3CC[C@@H]12`: the inhibition came to 20.2% in assay [1] and 72% in assay [2].
On to `C[C@]12CC[C@@H]3c4ccccc4CC[C@H]3[C@@H]1CC[C@@]21CCCC(=O)O1`, for which the results for the inhibition in assay [1] and in assay [2] were 6.1% and 4.7%, respectively.
The corresponding values for `C[C@]12CCC(=O)C=C1CC[C@@H]1[C@@H]2CC[C@@]2(C)[C@H]1CC[C@]2(O)C(=O)CO` are 9.8% and 0%.
For `CC1(C)CC[C@@]2(CC[C@H]3[C@@H]4CCc5cc(O)ccc5[C@H]4CC[C@@]32C)OC1=O`, in that order: 20.1% and 69.4%.
On to `CCOc1ccc2c(c1)CC[C@@H]1[C@@H]2CC[C@@]2(C)[C@H]1CC[C@@]21CCC(C)(C)C(=O)O1`, for which the inhibition was determined as 20.6% in assay [1] and 29.3% in assay [2].
As to `CC(C)C(=O)Nc1ccc([N+](=O)[O-])c(C(F)(F)F)c1`, the inhibition in assay [1] stood at 18.6%; in assay [2] it was 10.8%.
For `CC(C)(C)NC(=O)[C@H]1CC[C@H]2[C@@H]3CC=C4C=C(Cl)CC[C@]4(C)[C@H]3CC[C@]12C`, in that order: 13.4% and 56.8%.
For `COc1cc2c(cc1O)CC[C@@H]1[C@@H]2CC[C@]2(C)C(=O)CC[C@@H]12`, in that order: 18.4% and 13.4%.
As for `COCCOc1ccc2c(c1)CC[C@@H]1[C@@H]2CC[C@@]2(C)[C@H]1CC[C@@]21CCC(C)(C)C(=O)O1`, the inhibition in assay [1] stood at 23.8%; in assay [2] it was 52.3%.
Take `CCCCCCN(C=O)[C@H]1CC[C@H]2[C@@H]3CC[C@H]4N(C)C(=O)CC[C@]4(C)[C@H]3CC[C@]12C`: the inhibition in assay [1] is 94.1%; in assay [2], 100%.
As for `CC1(C)CC[C@@]2(CC[C@H]3[C@@H]4CCc5cc(OS(=O)(=O)c6ccccc6)ccc5[C@H]4CC[C@@]32C)OC1=O`, the inhibition came out at 11.7% in assay [1] and 29.5% in assay [2].
Take `CC(=O)[C@H]1CC[C@H]2[C@@H]3CCC4=CC(=O)CC[C@]4(C)[C@H]3CC[C@]12C`: the inhibition is 7.3% in assay [1] and 19.1% in assay [2].
For `CC1(C)CC[C@@]2(CC[C@H]3[C@@H]4CCc5cc(C#N)ccc5[C@H]4CC[C@@]32C)OC1=O`, in that order: 23.8% and 34.6%.
In the case of `CC1CC[C@@]2(CC[C@H]3[C@@H]4CCc5cc(O)ccc5[C@H]4CC[C@@]32C)OC1=O` (stereo partly drawn), the inhibition in assay [1] is 14.4%; in assay [2], 32.1%.
Regarding `CC1(C)CC[C@@]2(CC[C@H]3[C@@H]4CCc5cc(OP(=O)(O)O)ccc5[C@H]4CC[C@@]32C)OC1=O`, the inhibition in assay [1] came to 0%; in assay [2] it was 16.5%.
For `CCS(=O)(=O)Oc1ccc2c(c1)CC[C@@H]1[C@@H]2CC[C@@]2(C)[C@H]1CC[C@@]21CCC(C)(C)C(=O)O1`, in that order: 21% and 60.9%.
For `C[C@]12CC[C@@H]3c4ccc(O)cc4CC[C@H]3[C@@H]1CC[C@@H]2O`, in that order: 1.1% and 0%.
For `CN1C(=S)CC[C@]2(C)[C@H]3CC[C@@]4(C)[C@@H](CC[C@@]45CCCC(=S)O5)[C@@H]3CC[C@@H]12`, in that order: 5.3% and 36.5%.
With `O=C(c1ccc(OCN2CCCCC2)cc1)c1c(-c2ccc(O)cc2)sc2cc(O)ccc12`, the inhibition in assay [1] and in assay [2] was 0% throughout.
Turning to `CC(=O)C1CC[C@@]2(CC[C@H]3[C@@H]4CCc5cc(O)ccc5[C@H]4CC[C@@]32C)OC1=O` (stereo partly drawn), the inhibition in assay [1] came to 2.1%; in assay [2], 14.8%.
Take `CC/C(=C(\c1ccccc1)c1ccc(OCCN(C)C)cc1)c1ccccc1`: the inhibition in assay [1] amounted to 8.9%; in assay [2], 3.2%.
For the compound `C[C@]12CC[C@@H]3c4ccc(O)cc4CC[C@H]3[C@@H]1C[C@@H](O)[C@@H]2O`, the inhibition in assay [2] is 29.5%.
`C[C@]12CCC(=O)C[C@@H]1CC[C@@H]1[C@@H]2CC[C@]2(C)[C@@H](O)CC[C@@H]12`: the inhibition in assay [2] was 49.6%.
`C[C@]12CCC(=O)C=C1CC[C@@H]1[C@@H]2[C@@H](O)C[C@@]2(C)[C@H]1CC[C@]2(O)C(=O)CO` showed an inhibition in assay [2] of 10.3%.
In the case of `C[C@]12CC[C@H]3[C@@H](CC=C4C[C@@H](O)CC[C@@]43C)[C@@H]1CC[C@@H]2O`, in assay [2], the inhibition is 29.7%.
On to `C[C@]12CC[C@H](O)C=C1CC[C@@H]1[C@@H]2CC[C@]2(C)C(=O)CC[C@@H]12`, for which the inhibition in assay [2] stood at 12.2%.
The compound `C[C@]12CC[C@H]3[C@@H](CCC4=CC(=O)CC[C@@]43C)[C@@H]1CC[C@@H]2O` registered an inhibition in assay [2] of 7.5%.
On to `C[C@]12CCc3c(ccc4cc(O)ccc34)[C@@H]1CCC2=O`, for which the inhibition in assay [2] came out at 14.2%.
`CC(=O)[C@@]1(O)CC[C@H]2[C@@H]3CC[C@H]4CC(=O)CC[C@]4(C)[C@H]3CC[C@@]21C` yielded an inhibition in assay [2] of 14.5%.
For the compound `C[C@]12C=CC(=O)C=C1CC[C@@H]1[C@@H]2CC[C@]2(C)C(=O)CC[C@@H]12`, the inhibition in assay [2] stood at 21.3%.
In assay [2], `C[C@]12CC[C@H](O)C[C@@H]1CC[C@@H]1[C@@H]2CC[C@]2(C)C(=O)CC[C@@H]12` had an inhibition of 8.1%.
In assay [2], `C[C@]12CCC(=O)C[C@@H]1CC[C@@H]1[C@@H]2[C@@H](O)C[C@@]2(C)[C@H]1CC[C@]2(O)C(=O)CO` returned an inhibition of 17.2%.
Take `C[C@]12CC[C@@H]3c4ccc(O)cc4C[C@@H](CCCCCCCCC[S+]([O-])CCCC(F)(F)C(F)(F)F)[C@H]3[C@@H]1CC[C@@H]2O` (stereo partly drawn): the inhibition in assay [2] was found to be 15.7%.
In the case of `CC(=O)[C@@]1(O)CC[C@H]2[C@@H]3CCC4=CC(=O)CC[C@]4(C)[C@H]3CC[C@@]21C`, the inhibition in assay [2] came to 20.8%.
Same read-out and setting: the figure for `CN(C)C(=O)CCCCCCCCCCC1Cc2cc(O)ccc2[C@H]2CC[C@]3(C)[C@@H](O)[C@H](Cl)C[C@H]3[C@H]12` (stereo partly drawn) is 18.5%; for `C[C@]12CC[C@@H]3c4ccc(O)cc4CC[C@H]3[C@@H]1CCC2=O` it is 10.1%.
Still for that read-out and setting: the figure for `C[C@]12CC[C@H](O)C[C@@H]1CC[C@@H]1[C@@H]2CC[C@]2(C)[C@@H](O)CC[C@@H]12` is 4.5%; for `CC(=O)[C@@]1(O)CC[C@H]2[C@@H]3CC=C4C[C@@H](O)CC[C@]4(C)[C@H]3CC[C@@]21C` it is 4.1%; for `CC(=O)[C@H]1CC[C@H]2[C@@H]3CC=C4C[C@@H](O)CC[C@]4(C)[C@H]3CC[C@]12C` it is 13.2%.
For the compound `C[C@]12CC=C3c4ccc(O)cc4CC[C@H]3[C@@H]1CCC2=O`, the inhibition in assay [2] worked out at 24%.
